Series [1] has as its system PC-3 cells. Kind of series: MTT cytotoxicity assay against PC-3 cells. It counts as cell-based, human. To be noted: for IC50: 96 h exposure, read-out: IC50 (μM), anti-proliferative activity against PC-3 cells. As for the experimental part: The antitumor activities of G1–G13 were evaluated by MTT (3-(4,5-dimethylthiazol-2-yl)-2,5-diphenyltetrazolium bromide) assay using a human PC-3 cell line.
The in vitro cytotoxicity activity of G1–G13 were measured by the colorimetric MTT assay. Briefly, PC-3 cells were incubated in 96-well plates at a density of 3 × 10^3 cells/well for 24 h. Then, the cells were exposed to various concentrations of tested compounds, INH and DOX, respectively for 96 h. After incubation, 10 μL of MTT (5 mg/mL) solution was added and the plates were incubated for 4 h at 37 °C. Next, the medium was replaced with 200 μL of DMSO to dissolve the formed formazan crystals. The absorbance was measured at 570 nm on a microplate reader (Synergy-HT, BioTek Instruments, Winooski, VT, USA).

Series [2] has as its target T1, Monoamine oxidase A (MAOA) (Homo sapiens, UniProt P21397).
T1 construct: the prostate cancer cell line LNCaP expressed a relatively high level of MAOA; endogenous in cells; host or cells: LNCaP cells (Cell Bank of the Chinese Academy of Sciences, Shanghai)
T1 sequence (P21397 1-527): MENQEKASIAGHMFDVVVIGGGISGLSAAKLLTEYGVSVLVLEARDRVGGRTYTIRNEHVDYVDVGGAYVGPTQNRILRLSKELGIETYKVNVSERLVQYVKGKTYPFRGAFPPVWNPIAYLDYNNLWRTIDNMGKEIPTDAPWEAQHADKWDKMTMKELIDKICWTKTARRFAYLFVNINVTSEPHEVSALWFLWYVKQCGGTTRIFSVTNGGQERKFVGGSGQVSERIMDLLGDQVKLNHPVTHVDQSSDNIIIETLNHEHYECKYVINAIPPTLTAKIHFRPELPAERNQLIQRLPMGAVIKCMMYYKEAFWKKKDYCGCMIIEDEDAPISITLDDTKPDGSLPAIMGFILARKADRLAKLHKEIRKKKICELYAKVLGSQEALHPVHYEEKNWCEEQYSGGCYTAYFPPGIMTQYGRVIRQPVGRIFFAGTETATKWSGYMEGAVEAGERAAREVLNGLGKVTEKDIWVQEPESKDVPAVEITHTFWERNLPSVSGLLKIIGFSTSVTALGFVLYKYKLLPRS
In words: MAOA inhibition activity assay in LNCaP cells (Cell MAOA Assay Kit). It counts as cell-based. Here is the method:
Because the prostate cancer cell line LNCaP expressed a relatively high level of MAOA [17, 40], we tested the inhibitory effect of compounds G10, G11, and G12 on MAOA using LNCaP cells (Table 2).
In a 10-mm dish, 6 × 10^5 LNCaP cells were plated in medium supplemented with 10% FBS. […] The reaction products were extracted and MAOA activities were measured as described in the introduction for the Cell MAOA Assay Kit (Shanghai Chengong Biotechnology, CHN, Lot No: 1-201838-10). The MAOA activity was assessed based on the substrate p-tyramine level after treatment with MAOB inhibitor pargyline.

Where [3] appears, read: LNCaP cells, 48 h treatment, substrate p-tyramine, with MAOB inhibitor pargyline, read-out: IC50 (nM), MAOA inhibitory activity in LNCaP cells.

“Also recorded” adds a separate entry of the source. Structures can show the parent of a compound that is named as a salt. Where two headings read alike, the source gives them in different places. Bounds are passed on as bounds.

For orientation: IC50 means the midpoint of a concentration-inhibition curve. “2-(7-(5-methoxyl-1-(5-carboxypentyl)-1,3-dihydro-5-ethyl-3-methyl-2H-indol-2-ylidene)-1,3,5-heptatrien-1-yl)-5-methoxyl-1-(6-(2-isonicotinoylhydrazinyl)-6-oxohexyl)-5-ethyl-3-methyl-3H-indol-1-ium bromide [Compound G6]”: in series [1], the IC50 amounted to 37.1 µM. On to `COc1ccc2c(c1)C(C)(C)C(=CC=C1CCCC(C=CC3=[N+](CCCCCC(=O)NNC(=O)c4ccncc4)c4ccc(OC)cc4C3(C)C)=C1Cl)N2CCCCCC(=O)O` [Compound G1, 2-(2-(3-(2-(5-Methoxyl-1-(5-carboxypentyl)-3,3-dimethyl-indol-2-ylidene)ethylidene)-2-chloro-1-cyclohexen-1-yl)vinyl)-5-methoxyl-1-(6-(2-isonicotinoylhydrazinyl)-6-oxohexyl)-3,3-dimethyl-3H-indol-1-ium bromide], for which the IC50 in series [1] (Homo sapiens) turned out to be 18.4 µM. Still for that read-out and setting: the figure for `CC1(C)C(=CC=C2CCCC(C=CC3=[N+](CCCCCC(=O)NNC(=O)c4ccncc4)c4ccc(Br)cc4C3(C)C)=C2Cl)N(CCCCCC(=O)O)c2ccc(Br)cc21` [Compound G2, 2-(2-(3-(2-(5-Bromo-1-(5-carboxypentyl)-3,3-dimethyl-indol-2-ylidene)ethylidene)-2-chloro-1-cyclohexen-1-yl)vinyl)-5-bromo-1-(6-(2-isonicotinoylhydrazinyl)-6-oxohexyl)-3,3-dimethyl-3H-indol-1-ium bromide] is 75 µM. As to `CCC1(C)C(/C=C/C2=C(Cl)C(=C/C=C3/N(CCCCCC(=O)O)c4ccc(OC)cc4C3(C)CC)/CCC2)=[N+](CCCCCC(=O)NNC(=O)c2ccncc2)c2ccc(OC)cc21` (centres unmarked) [Compound G3, 2-(2-(3-(2-(5-Methoxyl-1-(5-carboxypentyl)-5-ethyl-3-methyl-indol-2-ylidene)ethylidene)-2-chloro-1-cyclohexen-1-yl)vinyl)-5-methoxyl-1-(6-(2-isonicotinoylhydrazinyl)-6-oxohexyl)-5-ethyl-3-methyl-3H-indol-1-ium bromide], in series [1] (Homo sapiens), the IC50 worked out at 13.3 µM. Turning to `Cc1ccc2c(c1)C(C)(C)C(=CC=CC=CC=CC1=[N+](CCCCCC(=O)NNC(=O)c3ccncc3)c3ccc(C)cc3C1(C)C)N2CCCCCC(=O)O` [Compound G4, 2-(7-(1-(5-carboxypentyl)-1,3-dihydro-3,3,5-trimethyl-2H-indol-2-ylidene)-1,3,5-heptatrien-1-yl)-1-(6-(2-isonicotinoylhydrazinyl)-6-oxohexyl)-3,3,5-trimethyl-3H-indol-1-ium bromide], the IC50 in series [1] (Homo sapiens) is 46.7 µM. Consider `COc1ccc2c(c1)C(C)(C)C(=CC=CC=CC=CC1=[N+](CCCCCC(=O)NNC(=O)c3ccncc3)c3ccc(OC)cc3C1(C)C)N2CCCCCC(=O)O` [Compound G5, 2-(7-(5-methoxyl-1-(5-carboxypentyl)-1,3-dihydro-3,3-dimethyl-2H-indol-2-ylidene)-1,3,5-heptatrien-1-yl)-5-methoxyl-1-(6-(2-isonicotinoylhydrazinyl)-6-oxohexyl)-3,3-dimethyl-3H-indol-1-ium bromide], for which the half-inhibitory concentration (IC50) in series [1] (Homo sapiens) stood at 5.06 µM.

Take `COc1ccc2c(c1)C(C)(C)\C(=C/C=C/C=C/C=C/C1=[N+](CCCCCC(=O)NNC(=O)c3ccncc3)c3ccc(C)cc3C1(C)C)N2CCCCS(=O)(=O)[O-]` [Compound G7, 3H-Indolium,2-(7-(5-methoxy-1-(4-sulfonatobutyl)-3,3-dimethyl-2H-indolin-2-ylidene)-1,3,5-heptatrien-1-yl)-1-(6-(2-isonicotinoylhydrazinyl)-6-oxohexyl)-1,3-dihydro-3,3,5-trimethyl-, inner salt]: the IC50 in series [1] (Homo sapiens) came out at 28.6 µM.

`COc1ccc2c(c1)C(C)(C)C(/C=C/C=C/C=C/C=C1/N(CCCCS(=O)(=O)[O-])c3ccc(OC)cc3C1(C)C)=[N+]2CCCCCC(=O)NNC(=O)c1ccncc1` [Compound G8, 3H-Indolium,2-(7-(5-methoxy-1-(4-sulfonatobutyl)-3,3-dimethyl-2H-indolin-2-ylidene)-1,3,5-heptatrien-1-yl)-5-methoxy-1-(6-(2-isonicotinoylhydrazinyl)-6-oxohexyl)-1,3-dihydro-3,3-dimethyl-, inner salt]: the IC50 in series [1] (Homo sapiens) is 102 µM. The same measure, in the same setting: the value for `COc1ccc2c(c1)C(C)(C)\C(=C/C=C/C=C/C=C/C1=[N+](CCCCCC(=O)NNC(=O)c3ccncc3)c3ccccc3C1(C)C)N2CCCCS(=O)(=O)[O-]` [Compound G9, 3H-Indolium,2-(7-(5-methoxy-1-(4-sulfonatobutyl)-3,3-dimethyl-2H-indolin-2-ylidene)-1,3,5-heptatrien-1-yl)-1-(6-(2-isonicotinoylhydrazinyl)-6-oxohexyl)-1,3-dihydro-3,3-dimethyl-, inner salt] was 90.5 µM. For `CCCCN1/C(=C/C=C/C=C/C=C/C2=[N+](CCCC(=O)NNC(=O)c3ccncc3)c3ccc(C)cc3C2(C)C)C(C)(C)c2cc(OC)ccc21` [Compound G10, 2-(7-(5-Methoxy-1-butyl-3,3,5-trimethyl-2H-indolin-2-ylidene)-1,3,5-heptatrien-1-yl)-1-(6-(2-isonicotinoylhydrazinyl)-4-oxobutyl)-1,3-dihydro-3,3-dimethyl-3H-indolium bromide], the IC50 in series [1] (Homo sapiens) stood at 0.85 µM; in series [2] (setting [3]) it was 221 nM. Moreover, in series [2] (LNCaP cells), the “MAOA inhibitory activity (in words)” value is given as “moderate MAOA inhibitory activities”. As to `CCCCN1/C(=C/C=C/C=C/C=C/C2=[N+](CCCCCC(=O)NNC(=O)c3ccncc3)c3ccc(C)cc3C2(C)C)C(C)(C)c2cc(OC)ccc21` [Compound G11], the IC50 in series [1] (Homo sapiens) was 0.4 µM; in series [2] (setting [3]), 469 nM. The “MAOA inhibitory activity (in words)” value in series [2] (LNCaP cells) is reported as “moderate MAOA inhibitory activities”. Regarding `CCCCN1/C(=C/C=C/C=C/C=C/C2=[N+](CCCCCC(=O)NNC(=O)c3ccncc3)c3ccc(Br)cc3C2(C)C)C(C)(C)c2cc(OC)ccc21` [Compound G12], the IC50 in series [1] (Homo sapiens) is 1.55 µM; in series [2] (setting [3]), 661 nM. In addition, the “MAOA inhibitory activity (in words)” value in series [2] (LNCaP cells) was “moderate MAOA inhibitory activities”. For the compound `CC1(C)C(/C=C/C=C/C=C/C=C2/N(CCCCCC(=O)NNC(=O)c3ccncc3)c3ccc4ccccc4c3C2(C)C)=[N+](CCCCS(=O)(=O)[O-])c2ccc3ccccc3c21` [Compound G13, 1H-Benz[e]indolium,2-(7-(3,3-dimethyl-1-(4-sulfonatobutyl)benz(e)indolin-2-ylidene)hepta-1,3,5-trien-1-yl)-1-(6-(2-isonicotinoylhydrazinyl)-6-oxohexyl)-1,3-dihydro-3,3-dimethyl-, inner salt], the IC50 in series [1] (Homo sapiens) worked out at 10.5 µM. In the case of `COc1cccc2c1C(=O)c1c(O)c3c(c(O)c1C2=O)C[C@@](O)(C(=O)CO)C[C@@H]3O[C@H]1C[C@H](N)[C@H](O)[C@H](C)O1` [DOX, doxorubicin, reference compound], in series [1] (Homo sapiens), the IC50 amounted to 0.21 µM. With `NNC(=O)c1ccncc1` [INH, isoniazid, reference compound], the “cytotoxicity / antitumor activity against PC-3 cells (in words)” value in series [1] is recorded as “negligible cytotoxicity; also recorded: negligible in vitro antitumor activity”. For the same compound, the half-inhibitory concentration (IC50) in series [1] (Homo sapiens) was > 200 µM; in series [2], > 1000 nM.

The values are drawn from publication PMC6480602, “Design, Synthesis, and Evaluation of Monoamine Oxidase A Inhibitors–Indocyanine Dyes Conjugates as Targeted Antitumor Agents” (Molecules, 2019).
